Measurements taken from US20260378560A1, “APPROACHES TO DESIGNING AND PERFORMING COMPRESSED BIOLOGICAL EXPERIMENTS AND SYSTEMS FOR IMPLEMENTING THE SAME” (EXVIVO LABS INC., priority 2023, published 2026).

Experiments:
MOLT-4 [1] = assay: Cell viability (CellTiter Glo), compressed perturbation pools with informed pool design, MAX-based deconvolution, MOLT-4; details: for DRS: MOLT-4, None (measured individually), informed pool design table; for DRS from MAX-based deconvolution: MOLT-4, Samples, 7 Pick 3 informed perturbation pools;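 as to all read-outs here: higher DRS means a larger drug effect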
Description: (§1) Total cell viability was measured for each sample using an ATP-based luminescence assay (i.e., CellTiter Glo). Each cancer drug was then screened at multiple concentrations ranging from one nM to ten μM in order to generate a dose-response curve and calculate a DRS for each cancer cell line.
(§2) Each cancer drug was cultured with target cells individually. At the end of the screen, samples were either analyzed individually or compressed into pools for analysis. The library was compressed alphabetically into ten cohorts, each of which contained seven cancer drugs present in three out of the seven pools, as shown in Table VII. Said another way, the screening platform 210 generated a “7 pick 3” compressed library by assigning the cancer drugs among different pools. […] The library was also compressed into ten cohorts with pools designed based on information known about each cancer drug, as shown in Table VIII. After cell viability measurement and DRS calculation, the DRS of each cancer drug in the samples generated based on the pools were deconvoluted and compared to the DRS for each cancer drug measured individually.
(§3) In parallel to the exemplary sample compression screen covered in Table VII, perturbations were compressed into pools and then screened. The pools were designed using drug class as a feature with two compression rules (or simply “rules”). The first rule required that drugs from the same class be separated into different cohorts (i.e., mutually exclusive groups of pools). […] A benefit of compressing perturbations is the ability to measure additive, antagonistic, and synergistic effects between drugs in the same pool. However, these effects can negatively impact deconvolution of individual drug effects. Therefore, combinations of drugs for which evidence of clinical toxicity exists can be assigned to different pools in accordance with an informed pooling operation. As new preclinical or clinical evidence of toxic combinations becomes available, the rules implemented by the screening platform 210—and more specifically, its algorithm for compressing members of a library—can be updated accordingly.
(§4) In MAX-based deconvolution, an assumption of neutrality between the compressed perturbations is made. In other words, the perturbation with the largest effect is assumed to be masking the effects, if any, of the other perturbations in the pool. For SUM- and MAX-based deconvolution, qualitative deconvolution is first performed to rank the perturbations in each pool based on size of expected effect. Qualitative deconvolution, as described above, ranks the perturbations in a pool from largest effect size to smallest effect size. The ranking is based on the overlap of each perturbation's unique subset of pools with the highest and lowest measured pools. The perturbation with the largest effect is expected to be present in the pools with the highest measured signal or corresponding metric (e.g., DRS), while the perturbation with the smallest effect is expected to be present in the pools with the lowest measured signal or corresponding metric (e.g., DRS).
(§5) For MAX-based deconvolution, the highest ranked perturbation in the rank order is first assigned an effect size based on the pool with the lowest measured signal or corresponding metric (e.g., DRS) that it is present in. Said another way, the screening platform 210 can identify the highest ranked perturbation in the rank order and then assign an effect size based on the measured signal or corresponding metric (e.g., DRS) of the “weakest” pool in which the highest ranked perturbation is included. The screening platform 210 can repeat this step for the next highest ranked perturbation, and so on until the measurements for each pool have been assigned to one of the perturbations. The effects for the remaining perturbations can be assigned a value of zero, since it is assumed that their effect is masked by the perturbation with the largest effect in each pool.

REH [2] = assay: Cell viability (CellTiter Glo), library of cancer drugs, individual or sample compression with randomized (alphabetical) pools, REH; format: cell-based; details: REH; for DRS: None (measured individually); for DRS from deconvolution: Samples, 7 Pick 3 randomized (alphabetical) sample pools
Description: as §1, §2
(§6) In SUM-based deconvolution, an assumption of additivity is used to quantify the individual effects of each perturbation on each target. Additivity implies that each perturbation effect on each target is positively contributing to the overall effect measured for that pool. This is an accurate assumption for certain experiments, such as when targets or samples are compressed. When targets are pooled—or when samples containing different targets are pooled—the effect of each perturbation on each individual target is diluted. In other words, each perturbation has an isolated effect on a target in culture, and the sum total of the isolated effects are measured when pooled. Therefore, SUM-based deconvolution breaks down the sum total measured for a pool and assigns estimated fractional effects to each compressed perturbation or target in the pool. The screening platform 210 used SUM-based deconvolution for all target and sample compression experiments described above.

MOLT-4 [3] = assay: Cell viability (CellTiter Glo), library of cancer drugs, individual or sample compression with randomized (alphabetical) pools, MOLT-4; format: cell-based; details: for DRS: MOLT-4, None (measured individually); for DRS from deconvolution: MOLT-4, Samples, 7 Pick 3 randomized (alphabetical) sample pools
Description: as §1, §2, §6

REH [4] = assay: Cell viability (CellTiter Glo), compressed perturbation pools with informed pool design, MAX-based deconvolution, REH; details: REH; for DRS: None (measured individually), informed pool design table; for DRS from MAX-based deconvolution: Samples, 7 Pick 3 informed perturbation pools;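 as to all read-outs here: higher DRS means a larger drug effect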
Description: as §1, §2, §3, §4, §5

SMILES	DRS (MOLT-4 [1])	DRS from MAX-based deconvolution (MOLT-4 [1])	DRS (REH [2])	DRS from deconvolution (REH [2])	DRS (MOLT-4 [3])	DRS from deconvolution (MOLT-4 [3])	DRS (REH [4])	DRS from MAX-based deconvolution (REH [4])
CC#CC(=O)N1CCC[C@H]1c1nc(-c2ccc(C(=O)Nc3ccccn3)cc2)c2c(N)nccn12 [Acalabrutinib]	0.00	0.00	0.00	0.00	0.00	0.00	0.00	0.00
C[C@@H]1CCN(C(=O)CC#N)C[C@@H]1N(C)c1ncnc2[nH]ccc12 [Tofacitinib]	2.96	0.00	0.20	0.00	0.00	0.00	3.15	4.06
CC(C)(C#N)c1cc(Cn2cncn2)cc(C(C)(C)C#N)c1 [Anastrozole]	0.56	0.79	0.01	0.21	0.01	0.00	0.06	0.00
CC(C)C[C@H](NC(=O)CNC(=O)c1cc(Cl)ccc1Cl)B(O)O [Ixazomib]	0.00	0.00	15.29	15.74	13.99	14.23	0.00	0.00
COC(=O)N[C@@H](C)CNc1nccc(-c2cn(C(C)C)nc2-c2cc(Cl)cc(NS(C)(=O)=O)c2F)n1 [Encorafenib]	4.30	0.00	1.84	2.10	0.24	0.21	0.70	0.00
C=CC(=O)N1CCC[C@@H](n2nc(-c3ccc(Oc4ccccc4)cc3)c3c(N)ncnc32)C1 [Ibrutinib]	2.35	3.17	0.95	0.96	2.35	2.50	0.95	1.56
Cc1cnc(Nc2ccc(OCCN3CCCC3)cc2)nc1Nc1cccc(S(=O)(=O)NC(C)(C)C)c1 [Fedratinib]	2.70	3.88	4.94	5.00	4.84	4.67	8.20	9.03
CN1CC[C@@H](NC(=O)Nc2ccc(C#N)cc2)C[C@@H]1c1nc2ccccc2[nH]1 [Glasdegib]	0.00	0.00	1.63	1.45	0.03	0.00	0.00	0.00
Cn1cnc2c(F)c(Nc3ccc(Br)cc3F)c(C(=O)NOCCO)cc21 [Binimetinib]	0.11	0.00	0.00	0.00	0.00	0.00	0.37	0.00
Cn1cnc2c(F)c(Nc3ccc(Br)cc3Cl)c(C(=O)NOCCO)cc21 [Selumetinib]	2.74	3.41	0.00	0.00	0.40	0.00	3.91	4.43
CNC(=O)c1ccc(N2C(=S)N(c3ccc(C#N)c(C(F)(F)F)c3)C(=O)C2(C)C)cc1F [Enzalutamide]	25.00	28.24	0.00	0.00	0.00	0.00	27.70	31.61
CS(=O)(=O)CCNCc1ccc(-c2ccc3ncnc(Nc4ccc(OCc5cccc(F)c5)c(Cl)c4)c3c2)o1 [Lapatinib]	5.79		0.74	0.81	0.74	0.71	6.99	8.02
CC/C(=C(\c1ccccc1)c1ccc(OCCN(C)C)cc1)c1ccccc1 [Tamoxifen]	0.74	0.00	3.12	3.01	1.12	1.09	0.14	0.00
Cc1ccc(C(=O)Nc2ccc(CN3CCN(C)CC3)c(C(F)(F)F)c2)cc1C#Cc1cnc2cccnn12 [Ponatinib]	0.24	0.00	4.42	3.86	6.12	6.51	0.84	0.00
C=C(c1ccc(C(=O)O)cc1)c1cc2c(cc1C)C(C)(C)CCC2(C)C [Bexarotene]	4.84	5.31	1.00	0.00	7.00	0.00	4.94	5.97
CO[C@H]1C(=O)[C@]2(C)[C@@H](OC)C[C@H]3OC[C@@]3(OC(C)=O)[C@H]2[C@H](OC(=O)c2ccccc2)[C@]2(O)C[C@H](OC(=O)[C@H](O)[C@@H](NC(=O)OC(C)(C)C)c3ccccc3)C(C)=C1C2(C)C [Cabazitaxel]	0.01	0.00	29.39	29.52	29.89	30.06	0.01	0.00
C=C1C[C@@H]2[C@H](CC[C@]3(C)C(=O)CC[C@@H]23)[C@@]2(C)C=CC(=O)C=C12 [Exemestane]	1.04	0.00	0.00	0.00	0.00	0.00	1.84	0.00
O=C(CCCCCCC(=O)Nc1ccccc1)NO [Vorinostat]	1.84	0.00	12.12	12.11	13.42	13.67	2.01	0.00
COc1cc2nccc(Oc3ccc(NC(=O)C4(C(=O)Nc5ccc(F)cc5)CC4)cc3)c2cc1OC [Cabozantinib]	0.33	0.00	8.20	9.30	2.70	9.82	0.53	0.00
